How the values were obtained:
[1] = system: acid-sensing ion channels (ASICs); experiment: Pharmacological blockade of the ChR2 bystander current by the ASIC inhibitor amiloride; assay type: cell-based, mice
Protocol: Whole cell patch clamp recordings on cortical and hippocampus neurons were performed on an upright Leica DM-LFSA microscope. Slices were continually perfused in warmed (33° C.) ACSF at a rate of 7 ml min^−1 Patching was performed in the presence of synaptic transmission blockers 6-cyano-7-nitroquinoxaline-2,3-dione (CNQX, 50 μM) and D(−)-2-amino-5-phosphonovaleric acid (APV, 25 μM) and gabazine (25 μM) (Tocris Bioscience) except for during testing of electrically-evoked synaptic responses. For amiloride experiments, amiloride was added to the ACSF at a concentration of 500 μM (Tocris). Borosilicate glass (Sutter Instruments) pipette resistances were pulled to 3-6 MΩ and filled with potassium gluconate intracellular solution (130 mM K Gluconate, 10 mM KCl, 10 mM HEPES, 10 mM EGTA, 2 mM MgCl2, pH adjusted with KOH to 7.3). Voltage and current clamp electrophysiological recordings and manipulations were performed using pClamp (Axon Instruments). Cells were held at −70 mV for all experiments. Cells with leak current greater than −300 pA or pipette resistance greater than 30 MΩ were excluded. […]

[2] = system: cultured hippocampal neurons; experiment: Whole cell patch clamp of cultured hippocampal neurons expressing eArch3.0-ASIC2a (Champ) constructs; assay type: cell-based, rat
Source text: Construct design for hippocampal neurons: The protein sequence of rat ASIC2a (Genbank accession number NM_001034014.1) was human codon optimized and synthesized by Genscript. eArch3.0 and ASIC-YFP fusions were cloned into an AAV2 backbone either under a CaMKIIα or human synapsin promoter. The trafficking signal (TS) and endoplasmic reticulum export signal (ER) sequences were appropriately added to enhance membrane trafficking. All maps and sequence details are on the website: www(dot)optogenetics(dot)org.
Hippocampal neuron culture and calcium phosphate transfection (as per Mattis et al. (Nat Methods 2011; 9: 159-72)). Primary cultured hippocampal neurons were prepared from PO Sprague-Dawley rat pups (Charles River). CA1 and CA3 were isolated, digested with 0.4 mg ml^−1 papain (Worthington), and plated onto glass coverslips precoated with 1:30 Matrigel (Becton Dickinson Labware). […]
Electrophysiological recordings in cultured hippocampal neurons: Whole cell patch clamp recordings were performed on cultured hippocampal neurons 4-8 days post-transfection on an upright Leica DM-LFSA microscope (Mattis et al, 2011). […] Data acquisition, current and light manipulations were controlled using pClamp (Axon Instruments) via a Digidata 1440A interface and analyzed using ClampFit software (Axon Instruments). […]

[3] = system: Xenopus laevis oocytes; experiment: Two-electrode voltage clamp of CsR proton pump co-expressed with rat ASICs in oocytes; assay type: cell-based; conditions: co-expressed with CsRT46N; 560 nm, 0.1 mM MOPS, pH 7.5
Protocol: Two-component optogenetics experiments. Construct design and expression in Xenopus laevis oocytes: The coding sequences for rat ASICs (in pRSSP6009) were provided by Stefan Grander (Aachen). The pRSSP6009 plasmid coding for ASICs and the pGEM plasmid coding for Coccomyxa subellipsoidea C-169 Rhodopsin CsRT46N were linearized by MulI site in pRSSP 6009 and by NheI in pGEM. After transcription into RNA using T7 (pGEM) or SP6 (pRSSP6009) mMessage mMachine Kit (Ambion Inc, Texas, USA) 32 ng of capped RNA encoding CsR pump and one type of ASIC were co-injected into Xenopus leavis oocytes with a molar ratio of 1:1 pump:channel for ASIC1 and ASIC2a and a molar ratio of 1:2 for ASIC3. Oocytes were incubated for 3 days at 18° C. in ORI solution with 1 μM all-trans retinal (Tsunoda & Hegemann, 2009).
Two-electrode voltage clamp measurements: TEVC measurements on X. laevis oocytes were performed using a GeneClamp 500 amplifier (Axon Instruments, Union City). Data acquisition, buffer exchange and light triggering were controlled with pClamp software via a Digidata 1322A interface (Molecular Devices, Sunnyvale). […] For pH titration, buffer solutions were adjusted with 5 mM MOPS/MES/Citrate over the range of pH 8.0 to 4.0, and were subsequently compared with photocurrents measured at 0.1 mM MOPS at pH 7.5

## N=C(N)NC(=O)c1nc(Cl)c(N)nc1N [amiloride]
[1]; 500 μM amiloride applied for 20 minutes, hippocampal ChR2 bystander neurons, 15 s light pulse
  Magnitude of light-evoked bystander current, relative to baseline value: ~50%
[1]; 500 μM amiloride, absence of any illumination
  Membrane resistance during amiloride application: increase in membrane resistance

## Champ4.0: eArch3.0 and ASIC2a separated during protein translation by the ribosomal skip sequence p2A; SEQ ID NO:34
[2]; head-to-head comparison, increasing molecular separation, 0.1 mM buffer
  Presence and reliability of the inward ASIC-mediated current component: occasionally saw large ASIC currents
[2]; one-way ANOVA across 5 groups
  Cell health measures (leak current, membrane resistance, pipette resistance, resting membrane potential) across groups: no significant differences

B1: ASIC3: rat acid-sensing ion channel co-expressed with CsR in oocytes (protein, UniProt O35240 1-533, looked up)
Acid-sensing ion channel 3: MKPRSGLEEAQRRQASDIRVFASSCTMHGLGHIFGPGGLTLRRGLWATAVLLSLAAFLYQVAERVRYYGEFHHKTTLDERESHQLTFPAVTLCNINPLRRSRLTPNDLHWAGTALLGLDPAEHAAYLRALGQPPAPPGFMPSPTFDMAQLYARAGHSLEDMLLDCRYRGQPCGPENFTVIFTRMGQCYTFNSGAHGAELLTTPKGGAGNGLEIMLDVQQEEYLPIWKDMEETPFEVGIRVQIHSQDEPPAIDQLGFGAAPGHQTFVSCQQQQLSFLPPPWGDCNTASLDPDDFDPEPSDPLGSPRPRPSPPYSLIGCRLACESRYVARKCGCRMMHMPGNSPVCSPQQYKDCASPALDAMLRKDTCVCPNPCATTRYAKELSMVRIPSRASARYLARKYNRSESYITENVLVLDIFFEALNYEAVEQKAAYEVSELLGDIGGQMGLFIGASLLTILEILDYLCEVFQDRVLGYFWNRRSAQKRSGNTLLQEELNGHRTHVPHLSLGPRPPTTPCAVTKTLSASHRTCYLVTRL
[3]
  Inactivation in sustained light: strong inactivation

Reference: patent publication US10220092B2, “Devices, systems and methods for optogenetic modulation of action potentials in target cells” (The Board of Trustees of the Leland Stanford Junior …, priority 2013, dated 2019)
